Earlier results in patent US10722518B2, “Oxazine derivative for use in the treatment or prevention of cerebral amyloid angiopathy” (Novartis AG, priority 2016, dated 2020).

Test system: APP23 mice
Settings: aged APP23 mice treated for three months; cited from earlier work

Cc1cc(C#N)cnc1C(=O)Nc1ccc(F)c([C@]2(C)CO[C@@](C)(C(F)(F)F)C(N)=N2)c1 [NB360]
effect on CAA-related microhaemorrhage (volumetric MRI): no effect
